According to patent publication US7282507B2, “Indole derivatives as selective androgen receptor modulators (SARMS)” (Janssen Pharmaceutica N.V., priority 2004, dated 2007):
Several values for one entry are separate records, joined by “and”; a condition that tells them apart may be missing. Equal entries are not always repeated.

Key:
[1] = system: testosterone-enhanced ventral prostate and seminal vesicle weights; test: Ventral Prostate and Seminal Vesicle Weight in vivo Assay; set-up: species or system rat; conditions: immature castrated male Sprague Dawley rats, once daily for five days, usually orally 40 mg/kg, with testosterone propionate 2 mg/kg s.c. Note: key: 'active' if the non weight adjusted prostate weight was ≦40 mg or the % Inhibition prostate weight, body weight adjusted was ≧40% @ 2 mg/day dosage; ID50's, if determined, of ≦15 mg/day also indicated an 'active' compound; listed herein as 'inactive' as they did not meet the specified criteria defined above.
In short: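 Wet weights of ventral prostate and seminal vesicles were taken on day six. Castrated immature male Sprague Dawley rats had received five daily doses of testosterone propionate (2 mg/kg s.c.) together with test compound, typically 40 mg/kg orally. Activity was scored from absolute prostate weight or body-weight-adjusted % inhibition.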

[2] = molecular target: T1, androgen receptor (rat ventral prostate cytosol) (Rattus norvegicus, UniProt P15207); test: Androgen Receptor Binding Using Rat Ventral Prostate Cytosol; conditions: for % Inhibition, Androgen Receptor Binding (Rat Cytosol) / inhibition at 3 µM: Concentration 3000 nM
T1 construct: from tissue; host or cells: ventral prostate cytosol of castrated male Sprague Dawley or Wistar rats
T1 sequence (P15207 1-902): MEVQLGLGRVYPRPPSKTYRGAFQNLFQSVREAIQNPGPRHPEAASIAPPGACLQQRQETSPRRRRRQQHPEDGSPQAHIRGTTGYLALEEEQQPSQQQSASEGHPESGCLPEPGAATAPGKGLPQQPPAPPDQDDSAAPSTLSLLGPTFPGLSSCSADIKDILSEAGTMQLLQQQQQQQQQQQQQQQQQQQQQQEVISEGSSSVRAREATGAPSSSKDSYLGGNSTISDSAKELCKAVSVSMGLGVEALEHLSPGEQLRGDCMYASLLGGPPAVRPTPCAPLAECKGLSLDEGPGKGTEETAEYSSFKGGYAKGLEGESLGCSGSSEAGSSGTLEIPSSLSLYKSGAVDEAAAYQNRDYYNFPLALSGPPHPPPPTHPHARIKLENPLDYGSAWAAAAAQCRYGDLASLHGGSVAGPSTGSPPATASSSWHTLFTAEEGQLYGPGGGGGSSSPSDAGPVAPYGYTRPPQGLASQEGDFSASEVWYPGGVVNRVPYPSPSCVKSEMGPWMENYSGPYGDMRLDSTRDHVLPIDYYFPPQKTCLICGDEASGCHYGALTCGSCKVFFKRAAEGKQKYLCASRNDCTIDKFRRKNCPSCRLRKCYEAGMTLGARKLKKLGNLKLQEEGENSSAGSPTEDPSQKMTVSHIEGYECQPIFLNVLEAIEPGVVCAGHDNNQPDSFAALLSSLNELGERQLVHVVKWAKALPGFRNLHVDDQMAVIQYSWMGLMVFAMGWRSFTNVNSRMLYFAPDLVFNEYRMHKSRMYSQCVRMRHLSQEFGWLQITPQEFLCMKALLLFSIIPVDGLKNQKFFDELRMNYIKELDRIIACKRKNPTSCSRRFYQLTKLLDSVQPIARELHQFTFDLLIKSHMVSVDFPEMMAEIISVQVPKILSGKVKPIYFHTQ
In short: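 Cytosol from castrated rat ventral prostate was incubated overnight at 4°C with 0.5 nM [3H] tracer and compound in TED buffer (10 mM Tris-HCl pH 7.4, molybdate, EDTA, DTT, glycerol).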

Row | Structure (SMILES) | active / inactive: inhibition of testosterone-enhanced prostate weight [1] | inhibition at 3 µM [2] | further results
1 | CC(O)(C[S+]([O-])Cc1ccccc1)c1cc2cc([N+](=O)[O-])c(C(F)(F)F)cc2[nH]1 (mixture of isomers) [Compound 161] | inactive |  | % Inhibition, Androgen Receptor Binding (Rat Cytosol) [2]: 39%
2 | COc1ccc(S(=O)(=O)CC(C)(O)c2cc3cc(Cl)c(C(F)(F)F)cc3[nH]2)cc1 (racemic) [Compound 129] | inactive |  | % Inhibition, Androgen Receptor Binding (Rat Cytosol) [2]: 39.5%
3 | COc1ccc(SCC(C)(O)c2cc3cc(Cl)c(C(F)(F)F)cc3n2S(C)(=O)=O)cc1 (racemic) [Compound 130] |  |  | % Inhibition, Androgen Receptor Binding (Rat Cytosol) [2]: 32.55%
4 | CCSCC(C)(O)c1cc2cc([N+](=O)[O-])c(C(F)(F)F)cc2[nH]1 (racemic) [Compound 142] | active | 92% | 
5 | CCSCC(C)(O)c1cc2cc([N+](=O)[O-])c(C(F)(F)F)cc2n1C (racemic) [Compound 165] | active | 52% | 
6 | CSCC(C)(O)c1cc2cc([N+](=O)[O-])c(C(F)(F)F)cc2[nH]1 (single isomer, unassigned) [Compound 144] |  |  | % Inhibition, Androgen Receptor Binding (Rat Cytosol) ([2]; 3 µM): 79%
7 | CSCC(C)(O)c1cc2cc([N+](=O)[O-])c(C(F)(F)F)cc2[nH]1 (single isomer, unassigned) [Compound 145] |  |  | % Inhibition, Androgen Receptor Binding (Rat Cytosol) ([2]; 3 µM): 58%
8 | CCSCC(C)(O)c1cc2cc([N+](=O)[O-])c(C(F)(F)F)cc2[nH]1 (single isomer, unassigned) [Compound 149] |  |  | % Inhibition, Androgen Receptor Binding (Rat Cytosol) ([2]; 3 µM): 94% and 77%
9 | CCSCC(C)(O)c1cc2cc([N+](=O)[O-])c(C(F)(F)F)cc2[nH]1 (single isomer, unassigned) [Compound 150] |  |  | % Inhibition, Androgen Receptor Binding (Rat Cytosol) ([2]; 3 µM): 120%
10 | CC[S+]([O-])C[C@](C)(O)c1cc2cc([N+](=O)[O-])c(C(F)(F)F)cc2[nH]1 (stereo in doubt) [Compound 155, 1-Ethanesulfinyl-2-(5-nitro-6-trifluoromethyl-1H-indol-2-yl)-propan-2-ol] | inactive | -6.1% | 
11 | CSCCC(C)(O)c1cc2cc([N+](=O)[O-])c(C(F)(F)F)cc2[nH]1 (stereo not drawn) [Compound 47] | inactive | 81% | 
12 | CC(O)(CCS(C)(=O)=O)c1cc2cc([N+](=O)[O-])c(C(F)(F)F)cc2[nH]1 (stereo not drawn) [Compound 49] | inactive | 48% | 
13 | CC(O)(CSc1ccc(N)cc1)c1cc2cc(Cl)c(C(F)(F)F)cc2[nH]1 (stereo not drawn) [Compound 104] | inactive | 110% | inhibition at 1 µM ([2]; Concentration 1000 nM, read-out: % Inhibition, Androgen Receptor Binding (Rat Cytosol)): 94.5%
14 | CC(O)(CS(=O)(=O)c1ccc(N)cc1)c1cc2cc(Cl)c(C(F)(F)F)cc2[nH]1 (stereo not drawn) [Compound 118] | inactive | 80.5% | 
15 | CC(O)(CSc1ccc(O)cc1)c1cc2cc(Cl)c(C(F)(F)F)cc2[nH]1 (stereo not drawn) [Compound 120] |  | 130% | 
16 | CC(O)(CS(=O)(=O)c1ccc(O)cc1)c1cc2cc(Cl)c(C(F)(F)F)cc2[nH]1 (stereo not drawn) [Compound 121] |  | 86% | 
17 | CC(O)(CSc1ccc([N+](=O)[O-])cc1)c1cc2cc(Cl)c(C(F)(F)F)cc2[nH]1 (stereo not drawn) [Compound 122] |  | 83.5% | 
18 | COc1ccc(SCC(C)(O)c2cc3cc(Cl)c(C(F)(F)F)cc3[nH]2)cc1 (stereo not drawn) [Compound 131] | inactive | 120% | 
19 | CSCC(C)(O)c1cc2cc(Cl)c(C(F)(F)F)cc2[nH]1 (stereo not drawn) [Compound 135] | inactive | 130% | 

Row | Structure (SMILES) | active / inactive: inhibition of testosterone-enhanced prostate weight [1] | inhibition at 3 µM [2] | further results
20 | CSCC(C)(O)c1cc2cc(C#N)c(C(F)(F)F)cc2[nH]1 (stereo not drawn) [Compound 136] | active | 38% | 
21 | CC(O)(CS(C)(=O)=O)c1cc2cc(Cl)c(C(F)(F)F)cc2[nH]1 (stereo not drawn) [Compound 138] | inactive | 110% | 
22 | CC(O)(CS(C)(=O)=O)c1cc2cc([N+](=O)[O-])c(C(F)(F)F)cc2[nH]1 (stereo not drawn) [Compound 140] | active |  | % Inhibition, Androgen Receptor Binding (Rat Cytosol) ([2]; 3 µM): 47%
23 | CCSCC(C)(O)c1cc2cc([N+](=O)[O-])c(C(F)(F)F)cc2n1S(C)(=O)=O (stereo not drawn) [Compound 141] | inactive | -4.5% | 
24 | CCS(=O)(=O)CC(C)(O)c1cc2cc([N+](=O)[O-])c(C(F)(F)F)cc2[nH]1 (stereo not drawn) [Compound 143] | active |  | % Inhibition, Androgen Receptor Binding (Rat Cytosol) ([2]; 3 µM): 14%
25 | CC(O)(CS(C)(=O)=O)c1cc2cc([N+](=O)[O-])c(C(F)(F)F)cc2[nH]1 (stereo not drawn) [Compound 147] |  |  | % Inhibition, Androgen Receptor Binding (Rat Cytosol) ([2]; 3 µM): 68%
26 | CC(O)(CS(C)(=O)=O)c1cc2cc([N+](=O)[O-])c(C(F)(F)F)cc2[nH]1 (stereo not drawn) [Compound 148] |  |  | % Inhibition, Androgen Receptor Binding (Rat Cytosol) ([2]; 3 µM): 94%
27 | CCS(=O)(=O)CC(C)(O)c1cc2cc([N+](=O)[O-])c(C(F)(F)F)cc2[nH]1 (stereo not drawn) [Compound 151] |  |  | % Inhibition, Androgen Receptor Binding (Rat Cytosol) ([2]; 3 µM): 100%
28 | CCS(=O)(=O)C[C@](C)(O)c1cc2cc([N+](=O)[O-])c(C(F)(F)F)cc2[nH]1 [Compound 156, 1-Ethanesulfonyl-2-(5-nitro-6-trifluoromethyl-1H-indol-2-yl)-propan-2-ol] | inactive | 66% | % Inhibition, Androgen Receptor Binding (Rat Cytosol) ([2]; 3 µM): 67%
29 | CCSCC(O)c1cc2cc([N+](=O)[O-])c(C(F)(F)F)cc2[nH]1 (stereo not drawn) [Compound 158] | inactive | 52% | 
30 | CC(O)(CSCc1ccccc1)c1cc2cc([N+](=O)[O-])c(C(F)(F)F)cc2[nH]1 (stereo not drawn) [Compound 160] | inactive | 65% | 
31 | CC(C)SCC(C)(O)c1cc2cc([N+](=O)[O-])c(C(F)(F)F)cc2[nH]1 (stereo not drawn) [Compound 164] | inactive | 52% | 
32 | CCCSCC(C)(O)c1cc2cc([N+](=O)[O-])c(C(F)(F)F)cc2[nH]1 (stereo not drawn) [Compound 168] | inactive | 41% | 
33 | CCSCC(O)(CC)c1cc2cc([N+](=O)[O-])c(C(F)(F)F)cc2[nH]1 (stereo not drawn) [Compound 169] | active | 62% | 
34 | CC(C)CSCC(C)(O)c1cc2cc([N+](=O)[O-])c(C(F)(F)F)cc2[nH]1 (stereo not drawn) [Compound 170] | active | 80% | 
35 | CC(O)(CSCC(F)(F)F)c1cc2cc([N+](=O)[O-])c(C(F)(F)F)cc2[nH]1 (stereo not drawn) [Compound 171] | active | 18% | IC50 ([2]; read-out: IC50 (nM), Androgen Receptor Binding (Rat Cytosol)): 320 nM
36 | CC(O)(CSC1CCCC1)c1cc2cc([N+](=O)[O-])c(C(F)(F)F)cc2[nH]1 (stereo not drawn) [Compound 173] | inactive | 32% | 
37 | CCC(O)(CS(=O)(=O)CC)c1cc2cc([N+](=O)[O-])c(C(F)(F)F)cc2[nH]1 (stereo not drawn) [Compound 176] | active | 90% | 
